Laboratory results taken from patent US9040554B2, “Solid forms of nematocidal sulfonamides” (priority 2011, dated 2015).

Tests used:
[1] = Relative stability experiments: non-competitive and competitive interconversion of crystal forms of Compound 1; type: physicochemical; details: for crystal form of the resulting material (pXRD, DSC, TGA, 1H-NMR): non-competitive, single starting form, refluxed in deionized water at about 95° C. for 3 hours
Method: The relative stability of various crystal forms of Compound 1 were subjected to non-competitive and competitive interconversion experiments.
In Example 12a, Form A of Compound 1 (0.4 g) prepared according to Preparation Example 5c was refluxed in deionized water (4 mL) at about 95° C. for 3 hours. The slurry was cooled to 25-30° C., filtered, suction dried for 1 hour and dried in a vacuum oven at 70° C. and 8 kPa absolute pressure for 12 hours.
In Example 12b, Form B of Compound 1 (0.4 g) prepared according to Preparation Example 5f was refluxed in deionized water (4 mL) at about 95° C. for 3 hours. The slurry was cooled to 25-30° C., filtered, suction dried for 1 hour and dried in a vacuum oven at 70° C. and 8 kPa absolute pressure for 12 hours. Analysis by pXRD, DSC, TGA and ^1H-NMR of the resulting material indicated Form A.
In Example 12c, Form D of Compound 1 (0.4 g) prepared according to Preparation Example 5g was refluxed in deionized water (4 mL) at about 95° C. for 3 hours. The slurry was cooled to 25-30° C., filtered, suction dried for 1 hour and dried in a vacuum oven at 70° C. and 8 kPa absolute pressure for 12 hours. Analysis by pXRD, DSC, TGA and ^1H-NMR of the resulting material indicated Form A.
In Example 12d, Form TS of Compound 1 (1 g) prepared according to Preparation Example 1 was refluxed in deionized water (10 mL) at about 95° C. for 3 hours. The slurry was cooled to 25-30° C., filtered, suction dried for 1 hour and dried in a vacuum oven at 65° C. and 8 kPa absolute pressure for 12 hours. Analysis by pXRD, DSC, TGA and ^1H-NMR of the resulting material indicated Form A.
In Example 12e, Form A (0.6 g) and Form B (0.6 g) of Compound 1 prepared according to Preparation Examples 5c and 5f, respectively, were blended as solids and refluxed in deionized water (12 mL) at about 95° C. for 3 hours. The slurry was cooled to 25-30° C., filtered, suction dried for 1 hour and dried in a vacuum oven at 65° C. and 8 kPa absolute pressure for 12 hours. Analysis by pXRD, DSC, TGA and ^1H-NMR of the resulting material indicated Form A.
In Example 12f, Form B (0.6 g) and Form D (0.6 g) of Compound 1 prepared according to Preparation Examples 5f and 5g, respectively, were blended as solids and refluxed in deionized water (12 mL) at about 95° C. for 3 hours. The slurry was cooled to 25-30° C., filtered, suction dried for 1 hour and dried in a vacuum oven at 65° C. and 8 kPa absolute pressure for 12 hours. Analysis by pXRD, DSC and ^1H-NMR of the resulting material indicated Form A.
In Example 12g, Form A (0.6 g) and Form D (0.6 g) of Compound 1 prepared according to Preparation Examples 5c and 5g, respectively, were blended as solids and refluxed in deionized water (12 mL) at about 95° C. for 3 hours. The slurry was cooled to 25-30° C., filtered, suction dried for 1 hour and dried in a vacuum oven at 65° C. and 8 kPa absolute pressure for 12 hours. Analysis by pXRD, DSC and ^1H-NMR of the resulting material indicated Form A.
In Example 12h, Form A (0.25 g), Form B (0.25 g), Form D (0.25 g) and Form TS (0.25 g) of Compound 1 prepared according to Preparation Examples 5c, 5f, 5g, and 1, respectively, were blended as solids and refluxed in deionized water (10 mL) at about 95° C. for 3 hours. The slurry was cooled to 25-30° C., filtered, suction dried for 1 hour and dried in a vacuum oven at 65° C. and 8 kPa absolute pressure for 12 hours. Analysis by pXRD, DSC and ^1H-NMR of the resulting material indicated Form A.
In Example 12i, Form A (0.25 g), Form B (0.25 g), Form D (0.25 g) and mixed Forms A and B (0.25 g) of Compound 1 prepared according to Preparation Examples 5c, 5f, 5g and 2, respectively, were blended as solids and refluxed in deionized water (10 mL) at about 95° C. for 3 hours. The slurry was cooled to 25-30° C., filtered, suction dried for 1 hour and dried in a vacuum oven at 65° C. and 8 kPa absolute pressure for 12 hours. Analysis by pXRD, DSC and ^1H-NMR of the resulting material indicated Form A. […]

[2] = Stability experiment for polymorph Form A of Compound 1 (stability chamber); type: physicochemical
Method: The physical stability of Form A of Compound 1 was determined as follows. Compound 1 prepared according to Preparation Example 3 was analyzed by pXRD, DSC, HPLC and ^1H-NMR and found to be of pure crystal Form A of 99.9% purity (by HPLC peak area at 230 nm detection wavelength). An aliquot of the sample (3.0 g) was placed in a primary polyethylene bag, the primary bag was flushed with nitrogen gas and sealed. The primary polyethylene bag was then placed in a secondary polyethylene bag which was again flushed with nitrogen gas and a silica gel sachet was placed between the inner and the outer bag. The double bagged material was then placed in a triple laminated aluminum pouch and placed in a stability chamber at 40° C. for 30 days. Analysis by HPLC and ^1H-NMR of the resulting material indicated pure Form A of Compound 1 of 99.9% purity (by HPLC peak area at 230 nm).

[3] = Example 12f, competitive: Form B + Form D blended, deionized water, about 95° C., 3 hours
[4] = Example 12g, competitive: Form A + Form D blended, deionized water, about 95° C., 3 hours
[5] = Example 12i, competitive: Forms A, B, D and mixed Forms A and B blended, deionized water, about 95° C., 3 hours
[6] = Example 12j, competitive: Forms A, B, D and mixed Forms A and B blended, methanol, about 55° C., 3 hours
[7] = Example 12k, competitive: Forms A, B and D blended, deionized water, about 55° C., 168 hours
[8] = Example 12h, competitive: Forms A, B, D and TS blended, deionized water, about 95° C., 3 hours
[9] = Example 12e, competitive: Form A + Form B blended, deionized water, about 95° C., 3 hours

| SMILES | crystal form of the resulting material [1, 3] | crystal form of the resulting material [1, 4] | crystal form of the resulting material [1, 5] | crystal form of the resulting material [1, 6] | crystal form of the resulting material [1, 7] | crystal form of the resulting material [1, 8] | crystal form of the resulting material (pXRD, DSC, TGA, 1H-NMR) [1] | crystal form of the resulting material ([1]; Example 12l: slurry in deionized water stirred at 25° C. for about 168 hours) | crystal form of the resulting material [1, 9] | relative thermodynamic stability of the solid forms, in words ([1]; under the conditions studied) | crystal form after storage (pXRD and DSC) ([2]; 40° C. for 30 days) | purity after storage (HPLC peak area at 230 nm) ([2]; 40° C. for 30 days, sealed under nitrogen in double polyethylene bag and aluminum pouch) | physical and chemical stability, in words ([2]; pure solid form) |
| --- | --- | --- | --- | --- | --- | --- | --- | --- | --- | --- | --- | --- | --- |
| COc1ccc(Cl)c(S(=O)(=O)NC(=O)c2cn3cc(C(F)(F)F)cc(Cl)c3n2)c1 [Form D, 8-chloro-N-[(2-chloro-5-methoxyphenyl)sulfonyl]-6-(trifluoromethyl)-imidazo[1,2-a]pyridine-2-carboxamide] | Form A | Form A | Form A | Form A | Form A | Form A | Form A | – | – | – | – | – | – |
| COc1ccc(Cl)c(S(=O)(=O)NC(=O)c2cn3cc(C(F)(F)F)cc(Cl)c3n2)c1 [Form TS, 8-chloro-N-[(2-chloro-5-methoxyphenyl)sulfonyl]-6-(trifluoromethyl)-imidazo[1,2-a]pyridine-2-carboxamide] | – | – | – | – | – | Form A | Form A | – | – | – | – | – | – |
| COc1ccc(Cl)c(S(=O)(=O)NC(=O)c2cn3cc(C(F)(F)F)cc(Cl)c3n2)c1 [mixed Forms A and B, 8-chloro-N-[(2-chloro-5-methoxyphenyl)sulfonyl]-6-(trifluoromethyl)-imidazo[1,2-a]pyridine-2-carboxamide] | – | – | Form A | Form A | – | – | – | Form A | – | – | – | – | – |
| COc1ccc(Cl)c(S(=O)(=O)NC(=O)c2cn3cc(C(F)(F)F)cc(Cl)c3n2)c1 [Form A, 8-chloro-N-[(2-chloro-5-methoxyphenyl)sulfonyl]-6-(trifluoromethyl)-imidazo[1,2-a]pyridine-2-carboxamide] | – | Form A | Form A | Form A | Form A | Form A | remained unchanged, i.e. Form A | – | Form A | most thermodynamically stable polymorph form | pure polymorph Form A | 99.9% | physically and chemically stable |
| COc1ccc(Cl)c(S(=O)(=O)NC(=O)c2cn3cc(C(F)(F)F)cc(Cl)c3n2)c1 [Form B, 8-chloro-N-[(2-chloro-5-methoxyphenyl)sulfonyl]-6-(trifluoromethyl)-imidazo[1,2-a]pyridine-2-carboxamide] | Form A | – | Form A | Form A | Form A | Form A | Form A | – | Form A | – | – | – | – |
